According to patent publication US9474790B2, “Stable, protracted GLP-1/glucagon receptor co-agonists for medical use” (Novo Nordisk A/S, priority 2013, dated 2016):
Numbered stars: 1 amine (or outer) side, 2 acyl side, 3 side chain; on linkers, the order of the positions; unused ones are H or OH. Bridge positions count the residues as written; N and C are the ends. Square brackets hold non-standard residues; d marks the D form. Side chains are listed from the residue outwards. Peptide text beside a SMILES is read from it. I, II: the chains in the order shown. * marks the point of attachment. C18 diacid = O=C(O)CCCCCCCCCCCCCCCCC(=O)*; γGlu = O=C(O)[C@H](CCC(=O)[*:2])N[*:1]; Ac4c = NC1(C(=O)O)CCC1; AEEA = NCCOCCOCC(=O)O; Aib = CC(C)(N)C(=O)O

Assay: Thioflavin T (ThT) fibrillation assay for physical stability
Type: physicochemical
Conditions: 250 μM in 10 mM HEPES buffer, pH 7.5, 37° C., shaking 960 rpm
Summary of the method: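 Peptide at 250 μM in 10 mM HEPES pH 7.5 with 1 μM ThT, at 37° C with 960 rpm orbital shaking. Fluorescence (ex 444/em 485 nm) read every 20 min after 10 min pre-incubation; sigmoidal fit gives lag time (t0−2τ) and kapp (1/τ). Recovery is RP-HPLC peptide in the centrifuged, 0.22 μm-filtered supernatant as % of initial.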

SMILES	THT assay Lag time (Ex. 76) [h]
CC(C)C[C@H](NC(=O)[C@H](CC(=O)O)NC(=O)[C@H](CC(C)C)NC(=O)[C@H](Cc1ccc(O)cc1)NC(=O)[C@H](CCCCN)NC(=O)[C@H](CO)NC(=O)[C@H](CC(C)C)NC(=O)[C@H](CC(=O)O)NC(=O)[C@H](CO)NC(=O)[C@@H](NC(=O)[C@H](Cc1ccccc1)NC(=O)[C@@H](NC(=O)CNC(=O)[C@H](CCC(N)=O)NC(=O)C1(NC(=O)[C@@H](N)Cc2c[nH]cn2)CCC1)[C@@H](C)O)[C@@H](C)O)C(=O)N[C@@H](CCCCN)C(=O)N[C@@H](CCCNC(=N)N)C(=O)N[C@@H](C)C(=O)N[C@@H](CCCNC(=N)N)C(=O)N[C@@H](CCC(=O)O)C(=O)N[C@@H](Cc1ccccc1)C(=O)N[C@H](C(=O)N[C@@H](CCC(N)=O)C(=O)N[C@@H](Cc1c[nH]c2ccccc12)C(=O)N[C@@H](CC(C)C)C(=O)N[C@@H](CC(C)C)C(=O)N[C@@H](CCCCNC(=O)CC[C@H](NC(=O)CC[C@H](NC(=O)COCCOCCNC(=O)COCCOCCNC(=O)CC[C@H](NC(=O)CC[C@H](NC(=O)CCCCCCCCCCCCCCCCC(=O)O)C(=O)O)C(=O)O)C(=O)O)C(=O)O)C(=O)N[C@H](C(N)=O)[C@@H](C)O)C(C)C [Example 47, N^ε28-[(4S)-4-carboxy-4-[[(4S)-4-carboxy-4-[[2-[2-[2-[[2-[2-[2-[[(4S)-4-carboxy-4-[[(4S)-4-carboxy-4-(17-carboxyheptadecanoylamino)butanoyl]amino]butanoyl]amino]ethoxy]ethoxy]acetyl]amino]ethoxy]ethoxy]acetyl]amino]butanoyl]amino]butanoyl]-[Acb2,Leu10,Leu16,Lys17,Arg20,Glu21,Leu27,Lys28]-Glucagon amide] (H-H[Ac4c]QGTFTSDLSKYLDLKRAREFVQWLLK([γGlu-γGlu-AEEA-AEEA-γGlu-γGlu-C18 diacid])T-NH2; N-terminus assumed)	45
CC(C)C[C@H](NC(=O)[C@H](CC(=O)O)NC(=O)[C@H](CC(C)C)NC(=O)[C@H](Cc1ccc(O)cc1)NC(=O)[C@H](CCCCN)NC(=O)[C@H](CO)NC(=O)[C@H](CC(C)C)NC(=O)[C@H](CC(=O)O)NC(=O)[C@H](CO)NC(=O)[C@@H](NC(=O)[C@H](Cc1ccccc1)NC(=O)[C@@H](NC(=O)CNC(=O)[C@H](CCC(N)=O)NC(=O)C1(NC(=O)[C@@H](N)Cc2c[nH]cn2)CCC1)[C@@H](C)O)[C@@H](C)O)C(=O)N[C@@H](CCCCN)C(=O)N[C@@H](CCCNC(=N)N)C(=O)N[C@@H](C)C(=O)N[C@@H](CCCNC(=N)N)C(=O)N[C@@H](CCC(=O)O)C(=O)N[C@@H](Cc1ccccc1)C(=O)N[C@H](C(=O)N[C@@H](CCC(N)=O)C(=O)N[C@@H](Cc1c[nH]c2ccccc12)C(=O)N[C@@H](CC(C)C)C(=O)N[C@@H](CC(C)C)C(=O)N[C@@H](CCCCNC(=O)CNC(=O)[C@H](CO)NC(=O)[C@H](CCC(=O)O)NC(=O)CNC(=O)[C@H](CO)NC(=O)CC[C@H](NC(=O)CC[C@H](NC(=O)CCCCCCCCCCCCCCCCC(=O)O)C(=O)O)C(=O)O)C(=O)N[C@H](C(N)=O)[C@@H](C)O)C(C)C [Example 48] (I: H-H[Ac4c]QGTFTSDLSKYLDLKRAREFVQWLLKT-NH2 / II: {C18 diacid-γGlu-γGlu}-SGESG; amide I:28-II:C; N-terminus assumed)	45
CC(C)C[C@H](NC(=O)[C@H](CC(=O)O)NC(=O)[C@H](CC(C)C)NC(=O)[C@H](Cc1ccc(O)cc1)NC(=O)[C@H](CCCCN)NC(=O)[C@H](CO)NC(=O)[C@H](CC(C)C)NC(=O)[C@H](CC(=O)O)NC(=O)[C@H](CO)NC(=O)[C@@H](NC(=O)[C@H](Cc1ccccc1)NC(=O)[C@@H](NC(=O)CNC(=O)[C@H](CCC(N)=O)NC(=O)C1(NC(=O)[C@@H](N)Cc2c[nH]cn2)CCC1)[C@@H](C)O)[C@@H](C)O)C(=O)N[C@@H](CCCNC(=N)N)C(=O)N[C@@H](CCCNC(=N)N)C(=O)N[C@@H](C)C(=O)N[C@@H](CCCNC(=N)N)C(=O)N[C@@H](CCC(=O)O)C(=O)N[C@@H](Cc1ccccc1)C(=O)N[C@H](C(=O)N[C@@H](CCC(N)=O)C(=O)N[C@@H](Cc1c[nH]c2ccccc12)C(=O)N[C@@H](CC(C)C)C(=O)N[C@@H](CC(C)C)C(=O)N[C@@H](CCCCNC(=O)CC[C@H](NC(=O)CC[C@H](NC(=O)COCCOCCNC(=O)COCCOCCNC(=O)CC[C@H](NC(=O)CC[C@H](NC(=O)CCCCCCCCCCCCCCCCC(=O)O)C(=O)O)C(=O)O)C(=O)O)C(=O)O)C(=O)N[C@H](C(N)=O)[C@@H](C)O)C(C)C [Example 49, N^ε28-[(4S)-4-carboxy-4-[[(4S)-4-carboxy-4-[[2-[2-[2-[[2-[2-[2-[[(4S)-4-carboxy-4-[[(4S)-4-carboxy-4-(17-carboxyheptadecanoylamino)butanoyl]amino]butanoyl]amino]ethoxy]ethoxy]acetyl]amino]ethoxy]ethoxy]acetyl]amino]butanoyl]amino]butanoyl]-[Acb2,Leu10,Leu16,Arg20,Glu21,Leu27,Lys28]-Glucagon amide] (H-H[Ac4c]QGTFTSDLSKYLDLRRAREFVQWLLK([γGlu-γGlu-AEEA-AEEA-γGlu-γGlu-C18 diacid])T-NH2; N-terminus assumed)	45
CC(C)C[C@H](NC(=O)[C@H](Cc1c[nH]c2ccccc12)NC(=O)[C@H](CCC(N)=O)NC(=O)[C@@H](NC(=O)[C@H](Cc1ccccc1)NC(=O)[C@H](CCC(=O)O)NC(=O)[C@H](CCCNC(=N)N)NC(=O)[C@H](C)NC(=O)[C@H](CCCNC(=N)N)NC(=O)[C@H](CCCNC(=N)N)NC(=O)C(C)(C)NC(=O)[C@H](CC(=O)O)NC(=O)[C@H](CC(C)C)NC(=O)[C@H](Cc1ccc(O)cc1)NC(=O)[C@H](CCCCN)NC(=O)[C@H](CO)NC(=O)[C@H](CC(C)C)NC(=O)[C@H](CC(=O)O)NC(=O)[C@H](CO)NC(=O)[C@@H](NC(=O)[C@H](Cc1ccccc1)NC(=O)[C@@H](NC(=O)CNC(=O)[C@H](CCC(N)=O)NC(=O)C(C)(C)NC(=O)[C@@H](N)Cc1c[nH]cn1)[C@@H](C)O)[C@@H](C)O)C(C)C)C(=O)N[C@@H](CC(C)C)C(=O)N[C@@H](CCCCNC(=O)CC[C@H](NC(=O)CC[C@H](NC(=O)COCCOCCNC(=O)COCCOCCNC(=O)CC[C@H](NC(=O)CCCCCCCCCCCCCCCCC(=O)O)C(=O)O)C(=O)O)C(=O)O)C(=O)N[C@H](C(N)=O)[C@@H](C)O [Example 51, N^ε28-[(4S)-4-carboxy-4-[[(4S)-4-carboxy-4-[[2-[2-[2-[[2-[2-[2-[[(4S)-4-carboxy-4-(17-carboxyheptadecanoylamino)butanoyl]amino]ethoxy]ethoxy]acetyl]amino]ethoxy]ethoxy]acetyl]amino]butanoyl]amino]butanoyl]-[Aib2,Leu10,Aib16,Arg20,Glu21,Leu27,Lys28]-Glucagon amide] (H-H[Aib]QGTFTSDLSKYLD[Aib]RRAREFVQWLLK([γGlu-γGlu-AEEA-AEEA-γGlu-C18 diacid])T-NH2; N-terminus assumed)	45

Results, then the compound that gave them:

THT assay Lag time (Ex. 76) [h]	SMILES
45	CC(C)C[C@H](NC(=O)[C@H](Cc1ccc(O)cc1)NC(=O)[C@H](CCCCN)NC(=O)[C@H](CO)NC(=O)[C@H](CC(C)C)NC(=O)[C@H](CC(=O)O)NC(=O)[C@H](CO)NC(=O)[C@@H](NC(=O)[C@H](Cc1ccccc1)NC(=O)[C@@H](NC(=O)CNC(=O)[C@H](CCC(N)=O)NC(=O)C(C)(C)NC(=O)[C@@H](N)Cc1c[nH]cn1)[C@@H](C)O)[C@@H](C)O)C(=O)N[C@@H](CCC(=O)O)C(=O)N[C@@H](CO)C(=O)N[C@@H](CCCCN)C(=O)N[C@@H](CCCNC(=N)N)C(=O)N[C@@H](C)C(=O)N[C@@H](CCCNC(=N)N)C(=O)N[C@@H](CCC(=O)O)C(=O)N[C@@H](Cc1ccccc1)C(=O)N[C@H](C(=O)N[C@@H](CCC(N)=O)C(=O)N[C@@H](Cc1c[nH]c2ccccc12)C(=O)N[C@@H](CC(C)C)C(=O)N[C@@H](CC(C)C)C(=O)N[C@@H](CCCCNC(=O)CC[C@H](NC(=O)CC[C@H](NC(=O)[C@H](CO)NC(=O)[C@H](CCC(=O)O)NC(=O)[C@H](CO)NC(=O)CC[C@H](NC(=O)CC[C@H](NC(=O)CCCCCCCCCCCCCCCCC(=O)O)C(=O)O)C(=O)O)C(=O)O)C(=O)O)C(=O)N[C@H](C(N)=O)[C@@H](C)O)C(C)C [Example 52] (H-H[Aib]QGTFTSDLSKYLESKRAREFVQWLLK([γGlu-γGlu-Ser-Glu-Ser-γGlu-γGlu-C18 diacid])T-NH2; N-terminus assumed)
45	CC(C)C[C@H](NC(=O)[C@H](Cc1ccc(O)cc1)NC(=O)[C@H](CCCCN)NC(=O)[C@H](CO)NC(=O)[C@H](CC(C)C)NC(=O)[C@H](CC(=O)O)NC(=O)[C@H](CO)NC(=O)[C@@H](NC(=O)[C@H](Cc1ccccc1)NC(=O)[C@@H](NC(=O)CNC(=O)[C@H](CCC(N)=O)NC(=O)C(C)(C)NC(=O)[C@@H](N)Cc1c[nH]cn1)[C@@H](C)O)[C@@H](C)O)C(=O)N[C@@H](CCC(=O)O)C(=O)N[C@@H](CO)C(=O)N[C@@H](CCCCN)C(=O)N[C@@H](CCCNC(=N)N)C(=O)N[C@@H](C)C(=O)N[C@@H](CCCNC(=N)N)C(=O)N[C@@H](CCC(=O)O)C(=O)N[C@@H](Cc1ccccc1)C(=O)N[C@H](C(=O)N[C@@H](CCC(N)=O)C(=O)N[C@@H](Cc1c[nH]c2ccccc12)C(=O)N[C@@H](CC(C)C)C(=O)N[C@@H](CC(C)C)C(=O)N[C@@H](CCCCNC(=O)CC[C@H](NC(=O)CC[C@H](NC(=O)[C@H](CO)NC(=O)[C@H](CCC(=O)O)NC(=O)[C@H](CO)NC(=O)CC[C@H](NC(=O)CC[C@H](NC(=O)CCCCCCCCCCCCCCCCC(=O)O)C(=O)O)C(=O)O)C(=O)O)C(=O)O)C(=O)N[C@H](C(N)=O)[C@@H](C)O)C(C)C [Example 54, N^ε28-[(4S)-4-carboxy-4-[[(4S)-4-carboxy-4-[[(2S)-2-[[(2S)-4-carboxy-2-[[(2S)-2-[[(4S)-4-carboxy-4-[[(4S)-4-carboxy-4-(17-carboxyheptadecanoylamino)butanoyl]amino]butanoyl]amino]-3-hydroxypropanoyl]amino]butanoyl]amino]-3-hydroxypropanoyl]amino]butanoyl]amino]butanoyl]-[Aib2,Leu10,Glu15,Lys17,Arg20,Glu21,Leu27,Lys28]-Glucagon amide] (H-H[Aib]QGTFTSDLSKYLESKRAREFVQWLLK([γGlu-γGlu-Ser-Glu-Ser-γGlu-γGlu-C18 diacid])T-NH2; N-terminus assumed)
